Test results taken from US6607906B1, “Heterologous G protein coupled receptors expressed in yeast, their fusion with G proteins and use thereof in bioassay” (priority 1994, dated 2003).
pKd: −log10 of the molar value. Where two headings read alike, the source gives them in different places. Each block holds one molecule with its values, some of them ahead of it. Residues, ends and D or L forms follow the SMILES beside them.

Experiments:
rat CCKB receptor [1] = biological target: T1, rat CCKB receptor (Rattus norvegicus, UniProt P30553); test: Agar plate growth bioassay, yeast expressing CCKB receptor (LY628, LY631); format: cell-based
T1 construct: expressed in transfected cells; host or cells: Saccharomyces cerevisiae LY296 derivatives LY631 (Gpa1-Gαs chimera, pLP122) and LY628 (Gpa1-Gαi2 chimera, pLP121)
T1 sequence (P30553 1-452): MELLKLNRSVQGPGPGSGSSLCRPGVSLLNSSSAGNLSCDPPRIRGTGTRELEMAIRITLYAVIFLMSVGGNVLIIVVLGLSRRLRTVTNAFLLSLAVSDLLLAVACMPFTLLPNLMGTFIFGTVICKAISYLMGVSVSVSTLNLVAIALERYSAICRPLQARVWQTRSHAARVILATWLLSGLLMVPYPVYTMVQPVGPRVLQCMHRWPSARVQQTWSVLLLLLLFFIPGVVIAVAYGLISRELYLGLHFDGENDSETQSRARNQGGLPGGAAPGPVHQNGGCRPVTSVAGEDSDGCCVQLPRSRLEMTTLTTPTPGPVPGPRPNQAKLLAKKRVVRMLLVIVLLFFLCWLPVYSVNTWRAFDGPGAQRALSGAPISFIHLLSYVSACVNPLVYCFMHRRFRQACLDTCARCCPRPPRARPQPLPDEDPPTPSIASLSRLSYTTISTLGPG

human GRF receptor = biological target: T2, human GRF receptor (Homo sapiens, UniProt Q02643); test: Agar plate growth bioassay, yeast expressing GRF receptor (CY990); format: cell-based
T2 construct: expressed in transfected cells; host or cells: Saccharomyces cerevisiae CY990 (LY296 with pJH25 and pLP122 Gpa1-Gαs)
T2 sequence (Q02643 23-423): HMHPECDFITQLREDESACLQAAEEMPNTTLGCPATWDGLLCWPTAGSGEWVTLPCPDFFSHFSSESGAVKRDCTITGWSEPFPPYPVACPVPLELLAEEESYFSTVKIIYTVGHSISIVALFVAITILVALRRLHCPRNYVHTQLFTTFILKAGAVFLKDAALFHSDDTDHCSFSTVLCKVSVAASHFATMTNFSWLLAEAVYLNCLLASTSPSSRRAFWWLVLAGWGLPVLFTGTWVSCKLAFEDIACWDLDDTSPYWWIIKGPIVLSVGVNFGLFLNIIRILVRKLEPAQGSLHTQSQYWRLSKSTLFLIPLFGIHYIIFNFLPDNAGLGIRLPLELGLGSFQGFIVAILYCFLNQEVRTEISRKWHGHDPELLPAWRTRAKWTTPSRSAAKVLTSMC

rat SSTR2 = rat SSTR2 (Rattus norvegicus, UniProt P30680); format: cell-based
rat SSTR5 = biological target: T3, rat SSTR5 (Rattus norvegicus, UniProt P30938); test: Agar plate growth bioassay, yeast expressing SSTR5 (LY620); format: cell-based
T3 construct: expressed in transfected cells; host or cells: Saccharomyces cerevisiae LY620 (LY296 with pJH19 and pLP121 Gpa1-Gαi2)
T3 sequence (P30938 1-363): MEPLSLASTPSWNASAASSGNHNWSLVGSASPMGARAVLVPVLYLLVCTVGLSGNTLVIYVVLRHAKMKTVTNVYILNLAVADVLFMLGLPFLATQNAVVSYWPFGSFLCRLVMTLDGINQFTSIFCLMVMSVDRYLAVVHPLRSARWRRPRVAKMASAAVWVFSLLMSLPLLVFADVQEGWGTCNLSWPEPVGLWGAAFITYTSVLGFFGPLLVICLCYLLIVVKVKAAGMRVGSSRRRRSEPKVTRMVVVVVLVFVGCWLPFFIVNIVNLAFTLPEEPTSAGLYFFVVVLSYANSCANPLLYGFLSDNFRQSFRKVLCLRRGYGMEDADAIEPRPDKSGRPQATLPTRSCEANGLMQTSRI

porcine SSTR2 = test: Agar plate growth bioassay, yeast expressing porcine SSTR2 (LY474); format: cell-based
rat CCKB receptor (rat) = rat CCKB receptor (rat) (UniProt P30553); test: cell-based or functional assay
[2] = biological target: human GRF receptor (human) (UniProt Q02643); test: cell-based or functional assay
[3] = biological target: porcine SSTR2 expressed from plasmid pJH17 (porcine) (UniProt P34994); test: saturation radioligand binding, crude membranes of yeast cells bearing pJH17
[4] = biological target: rat SSTR2 somatostatin receptor subtype (rat) (UniProt P30680); test: maximal radioligand binding, crude membranes of yeast strain CY602 (SSTR2 with Gαs)
[5] = biological target: rat SSTR2 somatostatin receptor subtype (rat) (UniProt P30680); test: maximal radioligand binding, crude membranes of yeast strain CY603 (SSTR2 with Scg1)
[6] = biological target: rat SSTR2 somatostatin receptor subtype (rat) (UniProt P30680); test: maximal radioligand binding, crude membranes of yeast strain CY624 (SSTR2 with Gαi2)
[7] = biological target: rat SSTR2 somatostatin receptor subtype (rat) (UniProt P30680); test: saturation radioligand binding, membranes of yeast coexpressing SSTR2 and Scg1/Gαi2
[8] = biological target: rat SSTR2 somatostatin receptor subtype (rat) (UniProt P30680); test: radioligand binding with Gpp(NH)p (100 µM), crude membranes of yeast strain CY602 (SSTR2 with Gαs)
[9] = biological target: rat SSTR2 somatostatin receptor subtype (rat) (UniProt P30680); test: radioligand binding with Gpp(NH)p (100 µM), crude membranes of yeast strain CY603 (SSTR2 with Scg1)
[10] = biological target: rat SSTR2 somatostatin receptor subtype (rat) (UniProt P30680); test: radioligand binding with Gpp(NH)p (100 µM), crude membranes of yeast strain CY624 (SSTR2 with Gαi2)
human 5HTla receptor = biological target: T4, human 5HTla receptor (Homo sapiens, UniProt P08908); test: Saturation binding of 3H-spiperone to yeast membrane fractions (strain CY382, pCHI11)
T4 construct: first 14 amino acids of yeast Ste2 (N); expressed in transfected cells; host or cells: Saccharomyces cerevisiae strain CY382 (plasmid pCHI11), membrane fractions
T4 sequence (P08908 with tags, fused parts or gaps): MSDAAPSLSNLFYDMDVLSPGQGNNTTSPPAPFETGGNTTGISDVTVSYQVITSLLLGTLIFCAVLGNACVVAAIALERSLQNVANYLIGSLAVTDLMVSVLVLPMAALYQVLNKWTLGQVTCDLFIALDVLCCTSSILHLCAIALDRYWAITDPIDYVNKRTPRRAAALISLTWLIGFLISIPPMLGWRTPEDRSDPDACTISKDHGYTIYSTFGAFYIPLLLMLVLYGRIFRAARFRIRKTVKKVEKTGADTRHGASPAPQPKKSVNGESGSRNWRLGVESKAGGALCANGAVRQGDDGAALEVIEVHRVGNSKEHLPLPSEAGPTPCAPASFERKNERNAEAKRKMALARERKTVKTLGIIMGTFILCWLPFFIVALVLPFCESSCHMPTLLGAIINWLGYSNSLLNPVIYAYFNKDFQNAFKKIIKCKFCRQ

[11] = biological target: T5, rat SSTR2 somatostatin receptor subtype (Rattus norvegicus, UniProt P30680); test: Binding of radiolabeled somatostatin 14 to membranes of yeast expressing SSTR2; details: for percent radioligand bound compared to untreated samples, +Gpp(NH)p: Gpp(NH)p 100 μM
T5 construct: expressed in transfected cells; host or cells: Saccharomyces cerevisiae YPH500 derivatives CY624 (Gαi2), CY602 (Gαs), CY603 (Scg1); crude membranes

rat CCKB receptor [12] = biological target: T1, rat CCKB receptor; test: Radiolabeled agonist saturation binding of 3H-CCK-8, yeast membranes (LY631); details: GppNHp 100 μM, LY631 crude membranes
[13] = LY628 and LY631 cells, 30° C., 3 days

T5 sequence (P30680 with tags, fused parts or gaps limits assumed): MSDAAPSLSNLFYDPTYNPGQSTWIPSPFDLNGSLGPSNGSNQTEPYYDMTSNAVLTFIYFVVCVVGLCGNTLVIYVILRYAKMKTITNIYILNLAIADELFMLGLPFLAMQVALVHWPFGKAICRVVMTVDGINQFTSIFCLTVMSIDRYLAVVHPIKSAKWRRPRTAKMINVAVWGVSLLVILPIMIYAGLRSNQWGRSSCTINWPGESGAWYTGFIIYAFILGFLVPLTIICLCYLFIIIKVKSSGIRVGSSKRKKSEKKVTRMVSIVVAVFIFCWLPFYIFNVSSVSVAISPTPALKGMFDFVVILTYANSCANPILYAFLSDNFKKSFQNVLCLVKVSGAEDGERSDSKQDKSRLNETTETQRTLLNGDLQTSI
rat SSTR2 somatostatin receptor subtype (rat), sequence (P30680 whole entry): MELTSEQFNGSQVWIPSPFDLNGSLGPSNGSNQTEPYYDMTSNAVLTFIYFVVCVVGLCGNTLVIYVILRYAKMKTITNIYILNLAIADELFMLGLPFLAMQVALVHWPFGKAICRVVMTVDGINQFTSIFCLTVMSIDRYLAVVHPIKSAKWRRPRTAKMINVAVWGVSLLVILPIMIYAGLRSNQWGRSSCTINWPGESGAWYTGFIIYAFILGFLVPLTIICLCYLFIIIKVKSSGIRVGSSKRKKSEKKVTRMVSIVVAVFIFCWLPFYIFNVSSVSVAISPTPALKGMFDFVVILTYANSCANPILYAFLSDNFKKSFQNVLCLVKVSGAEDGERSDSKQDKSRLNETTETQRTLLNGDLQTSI
rat SSTR2, sequence (P30680 whole entry): as above

amount giving a detectable response (human GRF receptor): 20 nmol
growth response (human GRF receptor; CY990 cells, 3 days): dose-dependent growth response
Molecule: hGRF (1-29)-NH2: an agonist analog of GRF

amount giving a detectable growth response (rat CCKB receptor (rat)): 10 µg
Molecule: CCK-4 (from UniProt P06307 100-103) (peptide)

Bmax (human 5HTla receptor; saturation binding, strain CY382): 3.2 pmol/mg protein
Bmax (human 5HTla receptor; strain carrying pCHI11): 3.1 pmol/mg
Molecule: O=C(CCCN1CCC2(CC1)C(=O)NCN2c1ccccc1)c1ccc(F)cc1 [^3H-spiperone, spiperone]

percent radioligand bound compared to untreated samples, +Gpp(NH)p ([11]; strain CY602, Gαs): 0%
percent radioligand bound compared to untreated samples, +Gpp(NH)p ([11]; strain CY603, Scgl): 4%
percent radioligand bound compared to untreated samples, +Gpp(NH)p ([11]; strain CY624, Gαi): 22%
decrease of specific binding of 3H-CCK-8 (rat CCKB receptor [12]): greater than 50%
Molecule: Nc1nc2c(ncn2[C@@H]2O[C@H](COP(=O)(O)OP(=O)(O)NP(=O)(O)O)[C@@H](O)[C@H]2O)c(=O)[nH]1 [Gpp (NH) p]

growth response (rat CCKB receptor [1]; [13]): not observed
growth response (rat SSTR5; LY620 cells, 3 days): not observed
growth response (human GRF receptor; CY990 cells, 3 days): not observed
Molecule: CC(C)NCC(O)c1ccc(O)c(O)c1 (centres unmarked) [isoproterenol]
growth response (porcine SSTR2; LY474 cells, 3 days): not observed

Second part, the molecule before the results:

Molecule: CCK-4: cholecystokinin
amount giving a detectable response (rat CCKB receptor [1]): 10 µg
diameter of the growth zones, rank order (rat CCKB receptor [1]): CCK-8>gastrin>CCK-4
growth response (rat CCKB receptor [1]; [13]): dose-dependent growth response

Molecule: met-enkephalin: an opiate receptor agonist
growth response (halo) around disks (rat SSTR2): No detectable response
growth response (rat CCKB receptor [1]): not observed
growth response (rat SSTR5): not observed
growth response (porcine SSTR2): not observed
growth response (human GRF receptor): not observed

Molecule: sandostatin
diameter of the growth zones, rank order (porcine SSTR2): S-14=MK678>sandostatin
growth response (porcine SSTR2): dose-dependent growth response

Molecule: hGRF (1-29)-NH2 (from UniProt P01286 32-60) (peptide)
amount giving a detectable growth response, strain CY990 [2]: 20 nmol

Molecule: [^125I-tyr^11]-somatostatin 14 (from UniProt P61278 103-116) (peptide)
Bmax [3]: 146 fmol/mg
Bmax (fmol/mg total protein) [4]: 13.7
Bmax (fmol/mg total protein) [5]: 24.7
Bmax (fmol/mg total protein) [6]: 94.5
pKd [7]: 9.30
percent radioligand bound with Gpp(NH)p compared to untreated samples [8]: 0%
percent radioligand bound with Gpp(NH)p compared to untreated samples [9]: 4%
percent radioligand bound with Gpp(NH)p compared to untreated samples [10]: 22%

Molecule: C[N+](C)(C)CCOC(N)=O [carbachol]
growth response (rat CCKB receptor [1]; [13]): not observed
growth response (rat SSTR5; LY620 cells, 3 days): not observed
growth response (porcine SSTR2; LY474 cells, 3 days): not observed
growth response (human GRF receptor; CY990 cells, 3 days): not observed

Molecule: Cc1cc(C(C)(C)C)c(O)c(C)c1CC1=NCCN1 [oxymetazoline]
growth response (rat CCKB receptor [1]; [13]): not observed
growth response (rat SSTR5; LY620 cells, 3 days): not observed
growth response (porcine SSTR2; LY474 cells, 3 days): not observed
growth response (human GRF receptor; CY990 cells, 3 days): not observed

Molecule: C[C@H](N)C(=O)NCC(=O)N[C@H]1CSSC[C@@H](C(=O)O)NC(=O)[C@H](CO)NC(=O)[C@H]([C@@H](C)O)NC(=O)[C@H](Cc2ccc(O)c(I)c2)NC(=O)[C@H]([C@@H](C)O)NC(=O)[C@H](CCCCN)NC(=O)[C@H](Cc2c[nH]c3ccccc23)NC(=O)[C@H](Cc2ccccc2)NC(=O)[C@H](Cc2ccccc2)NC(=O)[C@H](CC(N)=O)NC(=O)[C@H](CCCCN)NC1=O [[^125I]tyr^11S-14] (HELM PEPTIDE1{A.G.C.K.N.F.F.W.K.T.[O=C([C@H](Cc1ccc(O)c(I)c1)N[*:1])[*:2]].T.S.C}$PEPTIDE1,PEPTIDE1,3:R3-14:R3$$$V2.0; N-terminus and C-terminus assumed; bridges inferred)
Bmax ([11]; strain CY602, Gαs): 13.7 fmol/mg total protein
Bmax ([11]; strain CY603, Scgl): 24.7 fmol/mg total protein
Bmax ([11]; strain CY624, Gαi): 94.5 fmol/mg total protein
pKd ([11]; yeast coexpressing Scgl/Gαi2, read-out: calculated Kd): 9.30
